Earlier results on six compounds are cited in US20160228384A1, “EMULSION CONTAINING TWO OILS AND STABILIZERS” (NANOMEDEX, LLC, priority 2015, published 2016).

Each structure is given as a SMILES string.

Experiment in series [1]: not given
This is another data set of the same source.

`CCCCOC(C)=O` [Butyl acetate]: the Log P (usually the decadic logarithm of the partition coefficient of the neutral form, usually between octanol and water) is recorded as 1.8. For the same compound, in series [1], the “Solubility in Water” value is reported as 0.64 wt % and the “Water Solubility in Solvent” value is listed as 0.98 wt %.

For `CCCCCCCC(=O)OCC` [Ethyl octanoate], the “Log P” value was 3.5. Moreover, in series [1], the “Solubility in Water” value was 0.051 wt % and the “Water Solubility in Solvent” value was 0.90 wt %.

`CCCCCCOC(C)=O` [Hexyl acetate]: the “Log P” value is given as 2.4. In series [1], the “Solubility in Water” value is 0.043 wt % and the “Water Solubility in Solvent” value is given as 0.566 wt %.

For the compound `CCCCCC(=O)OCC` [Ethyl hexanoate], the “Log P” value is 2.4. In addition, in series [1], the “Solubility in Water” value was 0.083 wt % and the “Water Solubility in Solvent” value is 0.47 wt %.

As to `CCCC(=O)OCC` [Ethyl butyrate], the “Log P” value is listed as 1.7. In series [1], the “Solubility in Water” value is 0.69 wt % and the “Water Solubility in Solvent” value is 0.79 wt %.

For the compound `CCCCCCCCOC(C)=O` [Octyl acetate], the “Log P” value is listed as 3.4. In addition, in series [1], the “Solubility in Water” value is listed as 0.018 wt % and the “Water Solubility in Solvent” value is 0.02 wt %.
